Test results: PubChem BioAssay AID256 (DTP/NCI, 2004)
Where “and” joins values, the source holds several entries; their conditions need not be identical. Equal values may be shown once. Inconclusive results and toxic doses are left out. The calls were made as follows: active = survival T/C of 150% or more; inactive = T/C below 125% in these data. Non-standard residues stand in square brackets, D forms with d. Residues, ends and D or L forms follow the SMILES beside them. ξ: configuration not given here. *: point of attachment. Cbz = O=C(OCc1ccccc1)*; ξP = O=C(O)C1CCCN1

Test system: CD2F1 mice, L1210 leukemia ip, survival T/C
Experiment: NCI In Vivo Anticancer Drug Screen. Data for tumor model L1210 Leukemia (intraperitoneal) in CD2F1 (CDF1) mice
Conditions: higher = longer survival
Outline: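 Transplantable tumor in mice; compound-treated vs vehicle-treated groups. Read-out = treated/control ratio of the measured endpoint.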

[1] = endpoint: mean survival time, dose: 50.0 mg/kg/injection, schedule: Q04DX002 (ip), vehicle: saline with Tween-80
[2] = endpoint: mean survival time, dose: 100.0 mg/kg/injection, schedule: Q04DX002 (ip), vehicle: saline with Tween-80
[3] = endpoint: mean survival time, dose: 100.0 mg/kg/injection, schedule: Q04DX003 (ip), vehicle: saline
[4] = endpoint: mean survival time, dose: 200.0 mg/kg/injection, schedule: Q04DX003 (ip), vehicle: saline
[5] = endpoint: mean survival time, dose: 400.0 mg/kg/injection, schedule: Q04DX003 (ip), vehicle: saline
[6] = endpoint: mean survival time, dose: 100.0 mg/kg/injection, schedule: Q01DX001 (ip), vehicle: saline
[7] = endpoint: mean survival time, dose: 200.0 mg/kg/injection, schedule: Q01DX001 (ip), vehicle: saline
[8] = endpoint: mean survival time, dose: 400.0 mg/kg/injection, schedule: Q01DX001 (ip), vehicle: saline
[9] = endpoint: mean survival time, dose: 50.0 mg/kg/injection, schedule: Q01DX009 (ip), vehicle: Klucel (hydroxypropylcellulose) (HPC)
[10] = endpoint: mean survival time, dose: 100.0 mg/kg/injection, schedule: Q01DX009 (ip), vehicle: Klucel (hydroxypropylcellulose) (HPC)
[11] = endpoint: mean survival time, dose: 100.0 mg/kg/injection, schedule: Q01DX009 (ip), vehicle: saline with Tween-80
[12] = endpoint: mean survival time, dose: 200.0 mg/kg/injection, schedule: Q01DX009 (ip), vehicle: saline with Tween-80

Measured: T/C

C=CCN(C)N=Nc1ccc(NC(N)=O)cc1
inactive: endpoint: mean survival time, dose: 2.34 mg/kg/injection, schedule: Q01DX009 (ip), vehicle: Klucel (hydroxypropylcellulose) (HPC) 100 % of control and 104 % of control | endpoint: mean survival time, dose: 4.68 mg/kg/injection, schedule: Q01DX009 (ip), vehicle: Klucel (hydroxypropylcellulose) (HPC) 104 % of control and 107 % of control | endpoint: mean survival time, dose: 9.37 mg/kg/injection, schedule: Q01DX009 (ip), vehicle: Klucel (hydroxypropylcellulose) (HPC) 110 % of control | endpoint: mean survival time, dose: 18.75 mg/kg/injection, schedule: Q01DX009 (ip), vehicle: Klucel (hydroxypropylcellulose) (HPC) 120 % of control | endpoint: mean survival time, dose: 75.0 mg/kg/injection, schedule: Q01DX009 (ip), vehicle: Klucel (hydroxypropylcellulose) (HPC) 98 % of control

NNC(=O)C(N)Cc1cnc[nH]1 (stereo not drawn)
inactive: [1] 100 % of control | [2] 100 % of control | endpoint: mean survival time, dose: 200.0 mg/kg/injection, schedule: Q04DX002 (ip), vehicle: saline with Tween-80 122 % of control | endpoint: mean survival time, dose: 400.0 mg/kg/injection, schedule: Q04DX002 (ip), vehicle: saline with Tween-80 118 % of control

S=C(S)N1CCCC1
inactive: [3] 95 % of control | [4] 95 % of control | [5] 92 % of control

NNC1CC2CCC1C2 (stereo not drawn)
inactive: endpoint: mean survival time, dose: 12.5 mg/kg/injection, schedule: Q01DX009 (ip), vehicle: saline 95 % of control | endpoint: mean survival time, dose: 25.0 mg/kg/injection, schedule: Q01DX009 (ip), vehicle: saline 93 % of control

CC(C)=NNS(=O)(=O)c1ccccc1
inactive: endpoint: mean survival time, dose: 12.5 mg/kg/injection, schedule: Q01DX005 (ip), vehicle: Klucel (hydroxypropylcellulose) (HPC) 88 % of control | endpoint: mean survival time, dose: 25.0 mg/kg/injection, schedule: Q01DX005 (ip), vehicle: Klucel (hydroxypropylcellulose) (HPC) 96 % of control | endpoint: mean survival time, dose: 50.0 mg/kg/injection, schedule: Q01DX005 (ip), vehicle: Klucel (hydroxypropylcellulose) (HPC) 96 % of control | endpoint: mean survival time, dose: 100.0 mg/kg/injection, schedule: Q01DX005 (ip), vehicle: Klucel (hydroxypropylcellulose) (HPC) 93 % of control

CC1(O)CC23CC(O)C4(O)C(CC(O)C4(C)C)C(C)(O)C2CCC1C3O (stereo not drawn)
inactive: endpoint: median survival time, dose: 0.06 mg/kg/injection, schedule: Q01DX009 (ip), vehicle: Klucel (hydroxypropylcellulose) (HPC) 97 % of control | endpoint: median survival time, dose: 0.12 mg/kg/injection, schedule: Q01DX009 (ip), vehicle: Klucel (hydroxypropylcellulose) (HPC) 96 % of control | endpoint: median survival time, dose: 0.25 mg/kg/injection, schedule: Q01DX009 (ip), vehicle: Klucel (hydroxypropylcellulose) (HPC) 102 % of control | endpoint: median survival time, dose: 0.5 mg/kg/injection, schedule: Q01DX009 (ip), vehicle: Klucel (hydroxypropylcellulose) (HPC) 97 % of control

C=CCNC(=S)n1cnc(N)n1
inactive: endpoint: mean survival time, dose: 25.0 mg/kg/injection, schedule: Q04DX002 (ip), vehicle: saline with Tween-80 104 % of control | [1] 96 % of control | [2] 104 % of control and 105 % of control

C/C(=N/Nc1ccc([N+](=O)[O-])cc1[N+](=O)[O-])C1CC2CCC1C2 (stereo not drawn)
inactive: endpoint: mean survival time, dose: 100.0 mg/kg/injection, schedule: Q01DX001 (ip), vehicle: saline with Tween-80 100 % of control | endpoint: mean survival time, dose: 200.0 mg/kg/injection, schedule: Q01DX001 (ip), vehicle: saline with Tween-80 96 % of control | endpoint: mean survival time, dose: 400.0 mg/kg/injection, schedule: Q01DX001 (ip), vehicle: saline with Tween-80 96 % of control

O=C(CNC(=O)OCc1ccccc1)NCC(=O)N1CCCC1C(=O)O (stereo not drawn) (Cbz-Gly-Gly-[ξP]-OH)
inactive: [3] 98 % of control | [4] 96 % of control | [5] 101 % of control

CC(C)OC(=O)Nc1ccccc1F
inactive: endpoint: mean survival time, dose: 100.0 mg/kg/injection, schedule: Q01DX009 (ip), vehicle: other 97 % of control | endpoint: mean survival time, dose: 200.0 mg/kg/injection, schedule: Q01DX009 (ip), vehicle: other 96 % of control | endpoint: mean survival time, dose: 400.0 mg/kg/injection, schedule: Q01DX009 (ip), vehicle: other 94 % of control

CSc1ncc(Br)c(Sc2nc(N)nc3nc[nH]c23)n1
inactive: endpoint: mean survival time, dose: 2.2 mg/kg/injection, schedule: Q01DX001 (ip), vehicle: saline with Tween-80 123 % of control | endpoint: mean survival time, dose: 3.0 mg/kg/injection, schedule: Q01DX001 (ip), vehicle: saline with Tween-80 117 % of control | endpoint: mean survival time, dose: 3.4 mg/kg/injection, schedule: Q01DX001 (ip), vehicle: saline with Tween-80 123 % of control | endpoint: mean survival time, dose: 4.4 mg/kg/injection, schedule: Q01DX001 (ip), vehicle: saline with Tween-80 122 % of control

OC(CC(O)(C(F)(F)F)C(F)(F)F)c1cccc(C(F)(F)F)c1 (stereo not drawn)
inactive: endpoint: mean survival time, dose: 132.0 mg/kg/injection, schedule: Q04DX003 (ip), vehicle: other 98 % of control | endpoint: mean survival time, dose: 200.0 mg/kg/injection, schedule: Q04DX003 (ip), vehicle: other 94 % of control | endpoint: mean survival time, dose: 300.0 mg/kg/injection, schedule: Q04DX003 (ip), vehicle: other 93 % of control

COc1cc(-c2ccc(N=Nc3c(O)ccc4ccccc34)c(OC)c2)ccc1N=Nc1ccc2c(S(=O)(=O)O)cc(S(=O)(=O)O)c(N)c2c1O
inactive: endpoint: mean survival time, dose: 50.0 mg/kg/injection, schedule: Q01DX001 (ip), vehicle: saline 91 % of control | [6] 94 % of control | [3] 94 % of control | [7] 88 % of control | [4] 95 % of control | [8] 94 % of control

CCOC(=O)C(=C=[N-])[n+]1ccc(C)cc1
inactive: endpoint: mean survival time, dose: 6.25 mg/kg/injection, schedule: Q01DX001 (ip), vehicle: saline sonified 101 % of control | endpoint: mean survival time, dose: 6.25 mg/kg/injection, schedule: Q01DX009 (ip), vehicle: saline sonified 94 % of control | endpoint: mean survival time, dose: 12.5 mg/kg/injection, schedule: Q01DX001 (ip), vehicle: saline sonified 103 % of control | endpoint: mean survival time, dose: 12.5 mg/kg/injection, schedule: Q01DX009 (ip), vehicle: saline sonified 94 % of control | endpoint: mean survival time, dose: 25.0 mg/kg/injection, schedule: Q01DX001 (ip), vehicle: saline sonified 103 % of control | endpoint: mean survival time, dose: 25.0 mg/kg/injection, schedule: Q01DX009 (ip), vehicle: saline sonified 89 % of control

CN(C)N=Nc1ccc([N+](=O)[O-])cc1
inactive: [9] 98 % of control | endpoint: mean survival time, dose: 79.0 mg/kg/injection, schedule: Q01DX009 (ip), vehicle: Klucel (hydroxypropylcellulose) (HPC) 102 % of control | [10] 102 % of control | endpoint: mean survival time, dose: 118.0 mg/kg/injection, schedule: Q01DX009 (ip), vehicle: Klucel (hydroxypropylcellulose) (HPC) 108 % of control | endpoint: mean survival time, dose: 177.0 mg/kg/injection, schedule: Q01DX009 (ip), vehicle: Klucel (hydroxypropylcellulose) (HPC) 120 % of control | endpoint: mean survival time, dose: 200.0 mg/kg/injection, schedule: Q01DX009 (ip), vehicle: Klucel (hydroxypropylcellulose) (HPC) 108 % of control

CSc1ccc(SC)nn1
inactive: [11] 102 % of control | [12] 96 % of control | endpoint: mean survival time, dose: 400.0 mg/kg/injection, schedule: Q01DX009 (ip), vehicle: saline with Tween-80 91 % of control

N#CS.N=C=S.N=C=S.[Co+3].[NH-]CC[NH-].[NH-]CC[NH-]
inactive: endpoint: mean survival time, dose: 100.0 mg/kg/injection, schedule: Q04DX002 (ip), vehicle: saline 111 % of control | endpoint: mean survival time, dose: 200.0 mg/kg/injection, schedule: Q04DX002 (ip), vehicle: saline 104 % of control

Cc1cc(C)c(SC2c3ccccc3-c3ccccc32)c(C)c1
inactive: [6] 94 % of control | [3] 98 % of control | [7] 95 % of control | [4] 90 % of control | [8] 94 % of control | [5] 97 % of control

COC(=O)C(=O)O
inactive: [11] 93 % of control | [3] 95 % of control | [12] 95 % of control | [4] 104 % of control | [5] 93 % of control

O=C(CCl)Nc1ccc(SSc2ccc(NC(=O)CCl)cc2)cc1
inactive: endpoint: mean survival time, dose: 25.0 mg/kg/injection, schedule: Q01DX009 (ip), vehicle: Klucel (hydroxypropylcellulose) (HPC) 95 % of control | [9] 96 % of control | [10] 93 % of control
